# Experimental data from ChEMBL document CHEMBL5727031, “Metabotropic glutamate receptor negative allosteric modulators (NAMS) and uses thereof” (2018).
# Experiments:
# [1] = (§1) In Vitro GIRK Thallium Flux Assay (60 minutes): Human Embryonic Kidney (HEK-293) cell lines co-expressing rat mGlu receptors 2, 3, 4, 6, 7 or 8 and G protein-coupled inwardly-rectifying potassium (GIRK) channels_ENREF_54 were grown in Growth Media containing 45% DMEM, 45% F-12, 10% FBS, 20 mM HEPES, 2 mM L-glutamine, antibiotic/antimycotic, non-essential amino acids, 700 μg/ml G418, and 0.6 μg/ml puromycin at 37° C. in the presence of 5% CO2. All cell culture reagents were purchased from Invitrogen Corp. (Carlsbad, Calif.) unless otherwise noted. Compound activity at the group II (mGlu2 and mGlu3) mGlus was assessed using thallium flux through GIRK channels. Briefly, cells were plated into 384-well, black-walled, clear-bottomed poly-D-lysine-coated plates at a density of 15,000 cells/20 μL/well in DMEM containing 10% dialyzed FBS, 20 mM HEPES, and 100 units/mL penicillin/streptomycin (assay media). Plated cells were incubated overnight at 37° C. in the presence of 5% CO2. The following day, the medium was exchanged from the cells to assay buffer [Hanks' balanced salt solution (Invitrogen) containing 20 mM HEPES, pH 7.3] using an ELX405 microplate washer (BioTek), leaving 20 μL/well, followed by the addition of 20 μL/well FluoZin2-AM (330 nM final concentration) indicator dye (Invitrogen; prepared as a stock in DMSO and mixed in a 1:1 ratio with Pluronic acid F-127) in assay buffer. Cells were incubated for 1 h at room temperature, and the dye exchanged to assay buffer using an ELX405, leaving 20 μL/well. Test compounds were diluted to 2 times their final desired concentration in assay buffer (0.3% DMSO final concentration). Agonists were diluted in thallium buffer [125 mM sodium bicarbonate (added fresh the morning of the experiment), 1 mM magnesium sulfate, 1.8 mM calcium sulfate, 5 mM glucose, 12 mM thallium sulfate, and 10 mM HEPES, pH 7.3] at 5 times the final concentration to be assayed. Cell plates and compound plates were loaded onto a kinetic imaging plate reader (FDSS 6000 or 7000; Hamamatsu Corporation, Bridgewater, N.J.). Appropriate baseline readings were taken (10 images at 1 Hz; excitation, 470±20 nm; emission, 540±30 nm) and test compounds were added in a 20 μL volume and incubated for either 2.5 min or 60 min as indicated before the addition of 10 μL of thallium buffer with or without agonist. After the addition of agonist, data were collected for approximately an additional 60 min. Data were analyzed using Excel (Microsoft Corp, Redmond, Wash.). The slope of the fluorescence increase beginning 5 s after thallium/agonist addition and ending 15 s after thallium/agonist addition was calculated, corrected to vehicle and maximal agonist control slope values, and plotted in using either XLfit (ID Business Solutions Ltd) or Prism software (GraphPad Software, San Diego, Calif.) to generate concentration-response curves. Potencies were calculated from fits using a four-point parameter logistic equation. For concentration-response curve experiments, compounds were serially diluted 1:3 into 10 point concentration response curves and were transferred to daughter plates using an Echo acoustic plate reformatter (Labcyte, Sunnyvale, Calif.). Test compounds were applied and followed by EC80 concentrations of glutamate.
# [2] = as §1; remark: listed apart in the source
# [3] = as §1, with “Assay (2.5” for “Assay (60”, “additional 2.5” for “additional 60”
# [4] = as above; remark: listed apart in the source
Compound,"EC50 ([1]; HEK293, 1 h)","EC50 ([2]; HEK293, 1 h)","EC50 ([3]; HEK293, 2.5 min)",also measured
O=C(O)c1ccccc1-c1cccc(-c2csc(-c3ccccc3)n2)c1,> 10 µM,> 10 µM,–,–
O=C(O)c1cccc(-c2cccc(-c3coc(-c4ccccc4)n3)c2)c1,> 10 µM,–,–,–
O=C(O)c1cc(-c2ccc(-c3csc(-c4ccccc4)n3)cc2)ccc1F,–,> 30 µM,–,–
O=C1CC(c2cccc(Br)c2)Nc2ccc(NC(=O)OCc3ccccc3)cc2N1 (stereo unspecified),–,> 10 µM,–,–
O=C(O)c1ccccc1-c1cccc(-c2nc(-c3ccccc3)n(-c3ccccc3)n2)c1,> 10 µM,> 30 µM,–,–
O=C(O)c1cc(-c2cccc(Oc3nc(-c4ccco4)cc(C(F)(F)F)n3)c2)ccc1F,–,> 30 µM,–,–
Fc1ccccc1-c1cccc(-c2csc(-c3ccccc3)n2)c1,> 30 µM,3.4 µM,1.59 µM,"EC50 ([4]; HEK293, 2.5 min): > 30 µM"
Fc1ccc(-c2cccc(-c3csc(-c4cc5ccccc5s4)n3)c2)cc1,> 10 µM,1.92 µM,> 10 µM,"EC50 ([4]; HEK293, 2.5 min): > 10 µM"
Fc1ccc(-c2ccc(-c3csc(-c4ccccc4)n3)s2)cc1,> 10 µM,> 10 µM,> 10 µM,"EC50 ([4]; HEK293, 2.5 min): > 10 µM"
COc1ccc(-c2cccc(-c3nc(-c4ccco4)cc(C(F)(F)F)n3)c2)cc1C(=O)O,> 10 µM,–,–,–
Fc1ccc(-c2cccc(-c3csc(-c4ccc(C(F)(F)F)nc4)n3)c2)cc1,2.55 µM,0.85 µM,1.35 µM,"EC50 ([4]; HEK293, 2.5 min): 3.11 µM"
NS(=O)(=O)c1cccc(-c2cn(-c3nc(-c4ccc(C(F)(F)F)nc4)cc(C(F)(F)F)n3)cn2)c1,–,> 10 µM,–,–
Cc1ccccc1-c1cc(C(F)(F)F)nc(-c2cccc(-c3ccc(F)c(C(=O)O)c3)c2)n1,> 10 µM,–,–,–
CC(C)(C)OC(=O)Nc1ccc(C(=O)OC(C)(C)C)cc1NC(=O)CC(=O)c1ccnc(C#N)c1,–,> 30 µM,–,–
O=C(O)c1ccccc1-c1cccc(-c2nc(-c3ccc(C(F)(F)F)nc3)cc(C(F)(F)F)n2)c1,> 10 µM,> 10 µM,–,–
Cc1cc2c(cc1C(F)(F)F)NC(=O)CC(c1cccc(Br)c1)=N2,> 10 µM,> 10 µM,–,–
Fc1ccc(-c2cccc(-c3csc(-c4ccccc4)n3)c2)cc1,> 10 µM,0.48 µM,0.33 µM,"EC50 ([4]; HEK293, 2.5 min): 1.21 µM"
Fc1cccc(-c2cccc(-c3csc(-c4ccccc4)n3)c2)c1,> 30 µM,0.35 µM,0.64 µM,"EC50 ([4]; HEK293, 2.5 min): > 10 µM"
c1ccc(-c2cccc(-c3csc(-c4ccccc4)n3)c2)cc1,> 10 µM,–,–,–
c1ccc(-c2cccc(-c3nc(-c4ccccc4)n(-c4ccccc4)n3)c2)cc1,–,> 10 µM,> 10 µM,–
Fc1ccc(-c2cccc(-c3csc(-c4ccco4)n3)c2)cc1,> 30 µM,> 10 µM,2.4 µM,"EC50 ([4]; HEK293, 2.5 min): > 10 µM"
O=[N+]([O-])c1cccc(-c2cccc(-c3csc(-c4ccccc4)n3)c2)c1,> 30 µM,> 10 µM,> 10 µM,"EC50 ([4]; HEK293, 2.5 min): > 10 µM"
Cc1nc(-c2cccc(-c3ccc(F)cc3)c2)cs1,> 10 µM,> 10 µM,> 10 µM,"EC50 ([4]; HEK293, 2.5 min): > 10 µM"

Compound,"EC50 ([1]; HEK293, 1 h)","EC50 ([2]; HEK293, 1 h)","EC50 ([3]; HEK293, 2.5 min)",also measured
Cc1cc2c(cc1C(F)(F)F)NC(=O)CC(c1cccc(C#C[Si](C)(C)C)c1)N2 (stereo unspecified),4.53 µM,4.47 µM,–,–
O=C(O)c1cccc(-c2cccc(-c3nc(-c4ccccc4)nn3-c3ccccc3)c2)c1,> 10 µM,> 10 µM,–,–
Cc1cc2c(cc1C(F)(F)F)NC(=O)CC(c1cccc(C#Cc3ccccc3)c1)=N2,> 10 µM,> 10 µM,–,–
O=C(O)c1cccc(-c2cccc(-c3cn(-c4ccccc4)c(-c4ccccc4)n3)c2)c1,–,> 10 µM,–,–
Cc1cc2c(cc1C(F)(F)F)NC(=O)CC(c1cccc(Oc3cccc(Br)c3)c1)=N2,–,> 10 µM,–,–
O=C(O)c1cc(F)cc(-c2cccc(-c3nc(-c4ccoc4)cc(C(F)(F)F)n3)c2)c1,–,–,–,EC50 [1]: 1.56 µM; EC50 [3]: 0.35 µM; EC50 [2]: 0.31 µM; EC50 [4]: 2.21 µM
c1ccc(-c2nc(-c3cccc(-c4cccc(-c5nn[nH]n5)c4)c3)cs2)cc1,> 10 µM,–,–,–
Cc1cc(NC(=O)OC(C)(C)C)c(NC(=O)CC(=O)c2cccc(-n3ccc4ccccc43)c2)cc1C(F)(F)F,> 10 µM,> 10 µM,–,–
O=C(O)c1cccc(-c2cccc(-c3cc(-c4ccccc4)sn3)c2)c1,> 10 µM,–,–,–
Cc1cc2c(cc1C(F)(F)F)NC(=O)CC(c1cccc(Oc3ccccc3)c1)N2 (stereo unspecified),> 10 µM,> 10 µM,–,–
O=C(O)c1cc(-c2cccc(-c3nc(-c4cc(C(F)(F)F)cc(C(F)(F)F)c4)cc(C(F)(F)F)n3)c2)ccc1F,> 10 µM,–,–,–
Fc1ccc(-c2cccc(-c3csc(-c4ccoc4)n3)c2)cc1,> 10 µM,2.5 µM,2.26 µM,"EC50 ([4]; HEK293, 2.5 min): > 10 µM"
O=C(O)c1ccc(-c2cccc(-c3nc(-c4ccc(C(F)(F)F)nc4)cc(C(F)(F)F)n3)c2)cc1,> 10 µM,> 10 µM,–,–
Cc1cc2c(cc1C(F)(F)F)NC(=O)CC(c1cccc(Oc3cc(F)cc(F)c3)c1)=N2,–,> 10 µM,–,–
COc1ccc(-c2cccc(-c3csc(-c4ccccc4)n3)c2)cc1,2.86 µM,2.14 µM,1.73 µM,"EC50 ([4]; HEK293, 2.5 min): 1.77 µM"
Cc1noc(C)c1-c1cc(C(F)(F)F)nc(-c2cccc(-c3ccc(F)c(C(=O)O)c3)c2)n1,> 10 µM,> 10 µM,–,–
O=C1CC(c2ccnc(Br)c2)=Nc2ccc(-c3ccc(C(F)(F)F)cc3C(F)(F)F)cc2N1,> 10 µM,–,–,–
Cc1cc(-c2cccc(C3CC(=O)Nc4cc(NC(=O)Oc5ccccc5)ccc4N3)c2)cc(C)n1 (stereo unspecified),> 10 µM,> 10 µM,–,–
O=C(O)c1cc(-c2cccc(-c3cnc(-c4ccccc4)s3)c2)ccc1F,> 10 µM,–,–,–
N#Cc1cccc(C2=Nc3ccc(Br)cc3NC(=O)C2)c1,> 30 µM,> 30 µM,–,–
Cc1cc2c(cc1C(F)(F)F)NC(=O)CC(c1cccc(OCc3ccccc3)c1)N2 (stereo unspecified),–,> 10 µM,–,–
Cc1cc2c(cc1C(F)(F)F)NC(=O)CC(c1cccc(Oc3ncccn3)c1)N2 (racemic),–,–,> 10 µM,–
Cc1cc(-c2cccc(C3CC(=O)Nc4cc(NC(=O)OCc5ccccc5)ccc4N3)c2)cc(C)n1 (racemic),–,–,> 10 µM,–
